Several values for one entry are separate records, joined by “and”; a condition that tells them apart may be missing. Equal entries are not always repeated. Entries after “also recorded” stand apart in the source; their conditions may differ. Ends that are not written are not given here.
Tests used:
[1] = system: M14K (human mesothelioma) tumour cell line; experiment: MTT viability assay (cytostasis %); format: cell-based; details: 72 h incubation in RPMI, mean of three absorbance readings
Experimental: (§1) Consecutive peptide dilutions with RPMI 1640 (Sigma Aldrich) were used, whereas the working concentrations were 120 μM, 60 μM, 30 μM, 15 μM, 7.5 μM, 3.5 μM, 1.8 μM, and 0.9 μM in a final volume of 200 μL/well. […] Everything was treated in a sterile fashion.
(§2) We analysed the cytotoxicity of the peptide chosen for our study in relation to two adherent tumour cell lines: MDA-MB-231 (breast adenocarcinoma) and M14K (human mesothelioma). These lines were cultivated in the same conditions as those used for the optimization of the number of target cells. The negative control was represented by target cells incubated without peptide. Viability was analysed after 72 h of incubation at 37°C, 5% CO2, by two methods: MTT colorimetric assay [3-(4,5-dimethylthiazol-2-yl)-2,5-diphenyltetrazolium bromide] and flow cytometry using PE Annexin V (BD Pharmingen) and 7-AAD (7-aminoactinomycin D).
(§3) [3-(4,5-Dimethylthiazol-2-yl)-2,5-diphenyltetrazolium Bromide] […] Absorbance was measured at 570 nm against a 620 nm reference wavelength using a Tecan Sunrise plate reader. Relying on the absorbance values read in the cells incubated with the peptide studied (A peptide cells) and depending on the absorbance value read in peptide-free cells (A negative control), we calculated the cytostasis percentage, that is, the percentage of cells affected by apoptosis of the whole number of cells in any of the wells analysed. […]

[2] = cited from earlier work
Excerpt: This peptide is water soluble and nonhaemolytic at its effective and amphiphilic antimicrobial concentrations. At small concentrations, it inhibits the growth of numerous species of bacteria and fungi, and it induces osmotic lysis in protozoa ... || According to the product specifications, this peptide is soluble in distilled water with 0.1% TFA. As the solution is meant to be inserted into cell culture medium, we have chosen RPMI as the most suitable medium. This medium also allowed us to maintain an optimum pH (7.2–7.4) as we inserted the peptide solution. The extemporaneous peptide solution was utilized immediately after preparation.

[3] = system: MDA-MB-231 (breast adenocarcinoma) tumour cell line; experiment: MTT viability assay (cytostasis %); format: cell-based, human; details: MDA-MB-231, 72 h incubation in RPMI, mean of three absorbance readings
Experimental: as §1, §2, §3

[4] = system: M14K (human mesothelioma) tumour cell line; experiment: PE Annexin V / 7-AAD flow cytometry apoptosis assay; format: cell-based; details: for Q1 (7-AAD+) dead cells / Q2 (7-AAD+ Annexin V+) late apoptotic cells / Q4 (Annexin V+ 7AAD−) early apoptotic cells: 72 h in RPMI, 5000 events/well; for Q1 (7-AAD+) dead cells: negative control 2.1; for Q2 (7-AAD+ Annexin V+) late apoptotic cells: negative control 3.8; for Q4 (Annexin V+ 7AAD−) early apoptotic cells: negative control 4.5
Experimental: as §2
(§4) PE Annexin V and 7-AAD (7-Aminoactinomycin D) (BD Pharmingen) Viability Assay. This assay was used to detect and measure the apoptotic process by means of flow cytometry. Apoptosis is characterized by cell morphology changes, nuclear condensation, pyknosis, and also by a series of biochemical events causing mitochondrial membrane and nuclear DNA degradation. Phosphatidylserine, which is normally present in the inner layer of the lipid bilayer of the cell membrane, is exposed at the surface of the cells undergoing various stages of apoptosis. Annexin V has great affinity to phosphatidylserine residue, and 7-AAD was used as vital nuclear DNA stain. 96-well cell culture plates were used in our study. The first (1) and last (12) columns of wells only contained culture medium (RPMI 1640) in order to prevent the edge effect. Columns 2 and 11 of wells only contained peptide-free cell suspension (negative control). Columns 3–10 contained target cells and consecutive peptide dilutions. We worked in triplicate for the two cell lines and all the peptide concentrations we used. After 72 h of incubation at 37°C, 5% CO2, adherent cells were detached by trypsination (3–10 minutes of incubation at 37°C with Eurobio trypsin). The cell suspension was distributed in such a manner that each FACS tube had 1 × 10^5 cells. 3 FACS tubes were assessed; the first FACS tube contained unmarked cells, the second FACS tube contained Annexin V PE, and the third FACS tube contained Annexin V PE/7-AAD. Data collection and interpretation were done on a FACS Canto II flow cytometer using the FACSDiva Software (Becton Dickinson) (Figure 3).

[5] = system: MDA-MB-231 (breast adenocarcinoma) tumour cell line; experiment: as above; format: cell-based, human; details: MDA-MB231, 72 h in RPMI, 5000 events/well; for Q1—dead cells (7-AAD+): negative control 1.8; for Q2—late apoptosis cells (7-AAD+ Annexin V+): negative control 3; for Q4—early apoptosis cells (Annexin V+ 7-AAD−): negative control 4.7; for Q3—living cells (7-AAD− Annexin V−): negative control 90.5
Experimental: as §2, §4
Flow cytometry allowed apoptosis assessment for the MDA-MB-231 cell line incubated with the […]. 5000 events/well were acquired, and the results were compared with the viability of the peptide-free cells (negative control).

[6] = at its effective antimicrobial concentrations; cited from earlier work
Excerpt: This peptide is water soluble and nonhaemolytic at its effective and amphiphilic antimicrobial concentrations. At small concentrations, it inhibits the growth of numerous species of bacteria and fungi, and it induces osmotic lysis in protozoa ...

MCF7 tumour cell line = details: cited from earlier work
Excerpt: MDA-MB-231 is an adherent breast adenocarcinoma cell line, one of the three known breast cancer cell lines: MCF-7, MDA-MB-231, and T-47D [18, 19].

Sequence: GIGKFLHSAKKFGKAFVGEIMNS [Magainin II]
- cytostasis % (MTT test) ([1]; 15 μM peptide): absent
- cytostasis % (MTT test) ([1]; 30 μM peptide): significantly lower
- solubility in water [2]: water soluble
- solubility ([2]; distilled water with 0.1% TFA, ref product specifications (SIGMA M7402-1MG)): soluble
- cytostasis % (MTT test) ([3]; 15 μM peptide): absent
- cytostasis % (MTT test) ([3]; 30 μM peptide): persisted; also recorded: significantly lower
- Q1 (7-AAD+) dead cells ([4]; 60 μM peptide): 0.3%
- Q2 (7-AAD+ Annexin V+) late apoptotic cells ([4]; 60 μM peptide): 8.6%
- Q4 (Annexin V+ 7AAD−) early apoptotic cells ([4]; 60 μM peptide): 5.9%
- Q1 (7-AAD+) dead cells ([4]; 120 μM peptide): 2.8%
- Q2 (7-AAD+ Annexin V+) late apoptotic cells ([4]; 120 μM peptide): 47.8%
- Q4 (Annexin V+ 7AAD−) early apoptotic cells ([4]; 120 μM peptide): 13.5%
- cell population that underwent apoptosis ([4]; 72 h, flow cytometry PE Annexin V/7-AAD, concentration not stated in the sentence (values match 120 μM)): over 50%
- Q1—dead cells (7-AAD+) ([5]; 60 μM peptide): 0.8%
- Q2—late apoptosis cells (7-AAD+ Annexin V+) ([5]; 60 μM peptide): 19.6%
- Q4—early apoptosis cells (Annexin V+ 7-AAD−) ([5]; 60 μM peptide): 3.4%
- Q3—living cells (7-AAD− Annexin V−) ([5]; 60 μM peptide): 76.2%
- Q1—dead cells (7-AAD+) ([5]; 120 μM peptide): 1.4%
- Q2—late apoptosis cells (7-AAD+ Annexin V+) ([5]; 120 μM peptide): 47.5%
- Q4—early apoptosis cells (Annexin V+ 7-AAD−) ([5]; 120 μM peptide): 14.8%
- Q3—living cells (7-AAD− Annexin V−) ([5]; 120 μM peptide): 36.3%
- haemolysis [6]: nonhaemolytic
- concentration with cytotoxic effect (MCF7 tumour cell line): exceed 200 μg/mL and > 80 μM
